Results on 6 molecules are retold here after article PMC8160210, “Single tryptophan Y160W mutant of homooligomeric E. coli purine nucleoside phosphorylase implies that dimers forming the hexamer are functionally not equivalent” (Scientific Reports, 2021).

Series [1] deals with T1, WT E. coli PNP (Escherichia coli, UniProt P0ABP8).
T1 construct: made in house
T1 sequence (P0ABP8 2-239 limits assumed): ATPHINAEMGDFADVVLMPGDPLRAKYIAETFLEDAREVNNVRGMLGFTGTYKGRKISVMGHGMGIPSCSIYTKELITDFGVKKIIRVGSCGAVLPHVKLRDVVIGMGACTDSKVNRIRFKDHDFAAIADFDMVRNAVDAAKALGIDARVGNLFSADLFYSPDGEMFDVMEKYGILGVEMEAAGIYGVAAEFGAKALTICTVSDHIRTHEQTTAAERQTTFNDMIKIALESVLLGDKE
Also noted: method as in PMID 21672603. To be noted: pH 7.0, 50 mM Hepes, 25 °C, 50 mM phosphate; cited from earlier work.

The target in series [2] is T2, Y160W PNP mutant (Escherichia coli, UniProt P0ABP8, Y161W). The series is described as follows: Enzymatic specific activity, spectrophotometric assay. Format: biochemical, E. coli. Also noted: made in house; host or cells: E. coli DH5α-T1. To be noted: pH 7.0, 50 mM Hepes, 25 °C, 50 mM phosphate; for Enzymatic specific activity relative to WT: Y160W vs WT; for Enzymatic specific activity: Y160W. As to the method:
(§1) All activity measurements and kinetic studies were done in 50 mM Hepes/HCl buffer pH 7.0 at 25 °C as previously described for the WT E. coli PNP and its active-site mutants, using direct spectrophotometric assay for adenosine, guanosine and 7-methylguanosine as substrates, and a coupled assay with xanthine oxidase in the case of inosine[13],[28],[29]. Activity measurements were performed for each protein sample, before and after each experiment as a control of the state of the protein.

For series [3], the target named is T1, WT E. coli PNP. Described as above. Format: biochemical. To be noted: WT PNP (reference = 100); pH 7.0, 50 mM Hepes, 25 °C, 50 mM phosphate. As to the method: as §1
The target of series [4] is T2, Y160W PNP mutant. To be noted: nucleoside as variable substrate, 50 mM phosphate, Michaelis–Menten, pH 7.0, 25 °C. The method, then: Activity measurements were performed for each protein sample, before and after each experiment as a control of the state of the protein.
(§2) The classical Michaelis–Menten equation was fitted to the kinetic curves (i.e. initial rate of the reaction, v0, vs. initial substrate concentration, c0):1 v0c0=Vmax1c0/c0+KM1
(§3) Coefficients a and b express the degree of cooperation between the subunits in a dimer, while constants KM1 and Vmax1 characterize the active sites of the enzyme when the neighbouring site is free.
(§4) A more complex model was used if there was a statistically significant decrease in the residual sum of squares as judged by the F test at 95% confidence level.

For series [5], the target named is T1, WT E. coli PNP. The series is described as follows: Kinetic studies with variable substrate. The following applies: nucleoside as variable substrate, 50 mM phosphate, Michaelis–Menten, pH 7.0, 25 °C. Format: biochemical. As to the method:
as §1, §2, §3, §4

Series [6] addresses T1, WT E. coli PNP. Set-up: method as in PMID 30337572. The following applies: m^7Guo as variable substrate, 50 mM phosphate, Michaelis–Menten; cited from earlier work.
The test system of series [7] is Nc1nc2c(ncn2[C@@H]2O[C@H](CO)[C@@H](O)[C@H]2O)c(=O)[nH]1. The series is described as follows: purified protein, by the assay type. The following applies: other: Y160W, nucleoside as variable substrate, 50 mM phosphate, Michaelis–Menten, pH 7.0, 25 °C.
Substrate in series [8]: Nc1nc2c(ncn2[C@@H]2O[C@H](CO)[C@@H](O)[C@H]2O)c(=O)[nH]1
The series is described as follows: Kinetic studies with variable substrate. Format: biochemical, E. coli. To be noted: other: WT, nucleoside as variable substrate, 50 mM phosphate, Michaelis–Menten, pH 7.0, 25 °C. The method, then: as §1, §2, §3, §4

T2 sequence (P0ABP8 2-239 Y161W): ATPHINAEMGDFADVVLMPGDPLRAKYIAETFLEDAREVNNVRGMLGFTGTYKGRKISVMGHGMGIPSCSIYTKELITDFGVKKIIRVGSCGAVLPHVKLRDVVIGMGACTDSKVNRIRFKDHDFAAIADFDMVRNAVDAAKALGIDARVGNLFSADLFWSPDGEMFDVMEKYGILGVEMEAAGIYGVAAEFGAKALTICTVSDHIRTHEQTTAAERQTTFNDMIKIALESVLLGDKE

Take `Nc1ncnc2c1ncn2[C@@H]1O[C@H](CO)[C@@H](O)[C@H]1O` [Ado, Adenosine]: the Enzymatic specific activity was 58.5 ± 5.9 U/mg in series [1] and 65.6 ± 14.2 U/mg in series [2]. In addition, the “Enzymatic specific activity relative to WT” value in series [2] came to 112%; in series [3], 100%.
Turning to `Nc1nc2c(ncn2[C@@H]2O[C@H](CO)[C@@H](O)[C@H]2O)c(=O)[nH]1` [Guo, Guanosine], the values for the Enzymatic specific activity in series [1] and in series [2] were 60.4 ± 6.7 U/mg and 36.2 ± 2.0 U/mg, respectively. The “Enzymatic specific activity relative to WT” value in series [2] came out at 60%; in series [3] it was 100%.
In the case of `O=c1[nH]cnc2c1ncn2[C@@H]1O[C@H](CO)[C@@H](O)[C@H]1O` [Ino, Inosine], the results for the Enzymatic specific activity in series [1] and in series [2] were 103.2 ± 4.0 U/mg and 91.1 ± 8.9 U/mg, respectively. Besides, the “Enzymatic specific activity relative to WT” value in series [2] amounted to 88%; in series [3], 100%.
On to `C[n+]1cn([C@@H]2O[C@H](CO)[C@@H](O)[C@H]2O)c2nc(N)[nH]c(=O)c21` [m^7Guo, 7-Methylguanosine], for which the Km in series [4] was 71.3 ± 3 µM; in series [6] it was 27.2 µM. In addition, the Vmax in series [4] is 21 ± 1 U/mg; in series [5], 22.7 ± 0.3 U/mg. Also, the Enzymatic specific activity in series [1] is on record as 21.4 ± 1.6 U/mg; in series [2] it was 23.2 ± 1.2 U/mg. Further, the “Enzymatic specific activity relative to WT” value was determined as 108% in series [2] and 100% in series [3].
Regarding “Y160W PNP mutant (Escherichia coli K-12; Y161W)”, in series [7], the Michaelis constant (Km) was found to be 128 ± 2 µM and the Vmax is listed as 42.8 ± 0.3 U/mg.

B1: WT E. coli PNP (Escherichia coli K-12) (protein)
chain: ATPHINAEMGDFADVVLMPGDPLRAKYIAETFLEDAREVNNVRGMLGFTGTYKGRKISVMGHGMGIPSCSIYTKELITDFGVKKIIRVGSCGAVLPHVKLRDVVIGMGACTDSKVNRIRFKDHDFAAIADFDMVRNAVDAAKALGIDARVGNLFSADLFYSPDGEMFDVMEKYGILGVEMEAAGIYGVAAEFGAKALTICTVSDHIRTHEQTTAAERQTTFNDMIKIALESVLLGDKE
notes: made in house
As for B1, in series [8], the Km came out at 28 ± 4 µM and the Vmax was 51.1 ± 2.3 U/mg.

Broadly, the Km is the concentration of substrate that gives half-maximal velocity.
